According to patent US4791215A, “Derivatives of glutamic acid and aspartic acid” (priority 1984, dated 1988):

Key:
[1] = system: CCK-8 induced contraction of guinea pig gall bladder; assay: Anti-CCK activity on gall bladder strips in vitro; settings: CCK-8 10 ng/ml
Method: ANTI-CCK ACTIVITY ON GUINEA PIG GALL BALDDERS IN VITRO
A longitudinal strip of guinea pig gall bladder was placed in a bath of isolated members in the presence of Krebs at a temperature of 32° C. with continuous oxygenation with an oxygen-CO2 mixture (95-5V/V).
The isometric contractions were detected by means of a force transducer and recorded.
The gall bladder was made to contract with the use of a 10 ng/ml concentration of CCK-8; the antagonistic activity of the compounds of the invention on the contracting effect of the CCK was determined with the use of different concentrations and the ED 50 value, that is the concentration in μg/ml of a compound which could antagonise 50% of the contracting effect of the CCK, was determined.

[2] = system: morphine analgesia; assay: Increase in analgesia of morphine, Tail Flick Test (Experiment 1); assay type: in vivo, rats; settings: for percentage variation of latency of pain sensation / M (10-90) ± SE, mean percentage variation of latency: compound 10 mg/kg i.p. + morphine 2 mg/kg; for M (10-90) ± SE, mean percentage variation of latency: mean 10-90 min; for Power ratio with respect to morphine alone: rat, in vivo
Method: Experiment No: 1 Increase in analgesia of analgesic-narcotic drugs in rats by the Tail Flick Test
The method is that described by Harris et al. (J. Pharmacol. Exp. Ther. 143 (1964) 141-148).
Male rats are used having a weight of about 150-200 g which have not fasted. A point on the tail is chosen and irradiated by a heat source (75° C.) and the time (in seconds) for which the animal remains without moving its tail is measured.
A maximum period of time of 8 seconds under the heat source is chosen, after which the animal is, in any case, removed to avoid tissue damage. The measurement is effected before (controls) and after treatment with the drugs.
The percentage variation is calculated for each individual animal by the following formula: [formula] The measurements were carried out 10, 20, 30, 45, 60 and 90 minutes after treatment with the analgesics.

[3] = system: activity of analgesic drugs; assay: Hot-plate test, potentiation of analgesic drugs (Experiment 2); assay type: in vivo, rats
Method: Experiment No. 2: Hot-plate test
The method is that described by Eddy et al. (J. Pharmac. Exp. Ther. 107, 385 (1953)).
Groups of five male rats having a weight of about 150 g, and which have not fasted, are used.
The animals are placed on a metal plate on the bottom of a transparent cylinder, which is heated to 55°±1° C. by an azeotropic boiling mixture (acetone-ethyl formate 1:1).
The reaction time is defined as the interval which passes between the moment at which the animal is placed on the hot-plate and the moment at which it either licks its feet or tries to jump out of the cylinder. The control reaction time is measured 10 and 5 minutes before administration of the drugs and 10, 20, 30, 45, 60 and 90 minutes afterwards. The animals are left on the plate for a maximum period of 30 seconds.
The response to the administration of the product is considered positive if at least a doubling of the normal reaction time is seen. The results obtained are given in Tables 2a and 2b which record the groups treated, the doses administered and the stay times on the plate expressed as the number of positive responses over the number treated.

| SMILES | ED50 (concentration antagonising 50% of contracting effect of CCK-8) [1] [mg/L] | percentage variation of latency of pain sensation ([2]; 10') [%] | percentage variation of latency of pain sensation ([2]; 20') [%] | percentage variation of latency of pain sensation ([2]; 30') [%] | percentage variation of latency of pain sensation ([2]; 45') [%] | percentage variation of latency of pain sensation ([2]; 60') [%] | percentage variation of latency of pain sensation ([2]; 90') [%] | M (10-90) ± SE, mean percentage variation of latency [2] [%] | Power ratio with respect to morphine alone [2] | further results |
| --- | --- | --- | --- | --- | --- | --- | --- | --- | --- | --- |
| CCCN(CCC)C(=O)C(CCC(=O)O)NC(=O)c1ccc(Cl)c(Cl)c1 (centres unmarked) [Compound C-5] | 4.2 | 34.5 ± 17.4 | 21.4 ± 16.0 | 59.5 ± 21.1 | 84.7 | 63.9 ± 18.5 | 40.1 ± 23.9 | 50.7 ± 23.0 | 1.70 |  |
| CCCCN(CCCC)C(=O)CCC(NC(=O)c1ccc(Br)cc1)C(=O)O [Compound D-4] | > 200 | 72.8 ± 15.0 | 95.8 ± 3.0 | 96.3 ± 4.0 | 85.5 | 87.5 ± 8.0 | 45.3 ± 6.0 | 80.5 ± 19.3 | 2.70 |  |
| O=C(O)CCC(NC(=O)c1ccc(Cl)c(Cl)c1)C(=O)N1CCCCC1 (centres unmarked) [Compound C-26] | 146.5 | 50.1 ± 17.0 | 80.3 ± 20.0 | 84.7 ± 11.0 | 71.8 ± 15.0 | 32.2 | 4.9 ± 6.0 | 54.0 ± 31.1 | 1.81 |  |
| CCCN(CCC)C(=O)C(CCC(=O)O)NC(=O)c1ccccc1Cl (centres unmarked) [Compound C-1] | > 200 | 65.3 ± 18.0 | 67.2 | 66.3 ± 14.0 | 82.7 ± 11.0 | 68.8 ± 17.0 | 59.3 ± 25.0 | 68.2 | 2.29 |  |
| CCCN(CCC)C(=O)CCC(NC(=O)c1ccc(C)c(C)c1)C(=O)O [Compound D-15] | 245.0 | 43.5 ± 16 | 48.7 ± 18 | 72.6 | 60.1 ± 23 | 59.2 ± 18 | 43.5 ± 24 | 54.6 ± 11 | 1.83 |  |
| CCC(=O)C(CC(C)N(C)C)(c1ccccc1)c1ccccc1 (centres unmarked) [Methadone, reference compound] |  |  |  |  |  |  |  |  |  | TOTAL positives ([3]; methadone 1 mg/kg i.p. alone): 8 X/30; positive responses over number treated ([3]; methadone 1 mg/kg i.p. alone, 10'): 1/5; positive responses over number treated ([3]; methadone 1 mg/kg i.p. alone, 20'): 2/5; positive responses over number treated ([3]; methadone 1 mg/kg i.p. alone, 30'): 1/5; positive responses over number treated ([3]; methadone 1 mg/kg i.p. alone, 45'): 2/5; positive responses over number treated ([3]; methadone 1 mg/kg i.p. alone, 60'): 1/5; positive responses over number treated ([3]; methadone 1 mg/kg i.p. alone, 90'): 1/5 |
| CCCCC1C(=O)N(c2ccccc2)N(c2ccc(O)cc2)C1=O (centres unmarked) [Oxyphenylbutazone, reference compound] |  |  |  |  |  |  |  |  |  | TOTAL positives ([3]; oxyphenylbutazone 50 mg/kg i.p. alone): 7 x/30; positive responses over number treated ([3]; oxyphenylbutazone 50 mg/kg i.p. alone, 10'): 2/5; positive responses over number treated ([3]; oxyphenylbutazone 50 mg/kg i.p. alone, 20'): 1/5; positive responses over number treated ([3]; oxyphenylbutazone 50 mg/kg i.p. alone, 30'): 2/5; positive responses over number treated ([3]; oxyphenylbutazone 50 mg/kg i.p. alone, 45'): 2/5; positive responses over number treated ([3]; oxyphenylbutazone 50 mg/kg i.p. alone, 60'): 0/5; positive responses over number treated ([3]; oxyphenylbutazone 50 mg/kg i.p. alone, 90'): 0/5 |
